Measurements from ChEMBL document CHEMBL4177643, “Trisubstituted purine inhibitors of PDGFRα and their antileukemic activity in the human eosinophilic cell line EOL-1” (Bioorg Med Chem, 2017).

Tests used:
[1] = target: Platelet-derived growth factor receptor alpha (Homo sapiens, UniProt P16234); assay: Inhibition of recombinant human N-terminal GST-His6 tagged PDGFRalpha (Q551 to L1089 residues) expressed in Sf9 insect cells using poly(Ala,Glu,Lys,Tyr)6:2:5:1 hydrobromide as substrate in presence of [gamma-33P]ATP
EOL1 [2] = assay: Cytotoxicity against human EOL-1 cells assessed as growth inhibition after 72 hrs by calcein-AM dye based fluorescence assay; type: functional; conditions: EOL1, 72 h
K562 [3] = assay: Cytotoxicity against human K562 cells assessed as growth inhibition after 72 hrs by calcein-AM dye based fluorescence assay; type: functional; conditions: K562, 72 h
[4] = target: Cyclin-dependent kinase 2/cyclin E1 (Homo sapiens, UniProt P24941); assay: Inhibition of CDK2/cyclin E (unknown origin) expressed in baculovirus infected insect Sf9 cells using histone H1 as substrate in presence of [gamma-33P]ATP
K562 [5] = assay: Cell cycle arrest in human K562 cells assessed as G1/G2-M ratio at GI50 concentration after 24 hrs by propidium iodide staining-based flow cytometry relative to control; type: functional
BT-474 = assay: Cytotoxicity against human BT474 cells assessed as growth inhibition after 72 hrs by calcein-AM dye based fluorescence assay; type: functional; conditions: BT-474, 72 h
MCF7 = assay: Cytotoxicity against human MCF7 cells assessed as growth inhibition after 72 hrs by calcein-AM dye based fluorescence assay; type: functional; conditions: MCF7, 72 h
HCC827 [6] = assay: Cell cycle arrest in human HCC827 cells assessed as G1/G2-M ratio at GI50 concentration after 24 hrs by propidium iodide staining-based flow cytometry relative to control; type: functional
EOL1 [7] = assay: Cell cycle arrest in human EOL-1 cells assessed as G1/G2-M ratio at GI50 concentration after 24 hrs by propidium iodide staining-based flow cytometry relative to control; type: functional
HCC827 [8] = assay: Cytotoxicity against human HCC827 cells assessed as growth inhibition after 72 hrs by calcein-AM dye based fluorescence assay; type: functional; conditions: HCC827, 72 h

Sequence of Platelet-derived growth factor receptor alpha (P16234 whole entry, the tested form may be a part): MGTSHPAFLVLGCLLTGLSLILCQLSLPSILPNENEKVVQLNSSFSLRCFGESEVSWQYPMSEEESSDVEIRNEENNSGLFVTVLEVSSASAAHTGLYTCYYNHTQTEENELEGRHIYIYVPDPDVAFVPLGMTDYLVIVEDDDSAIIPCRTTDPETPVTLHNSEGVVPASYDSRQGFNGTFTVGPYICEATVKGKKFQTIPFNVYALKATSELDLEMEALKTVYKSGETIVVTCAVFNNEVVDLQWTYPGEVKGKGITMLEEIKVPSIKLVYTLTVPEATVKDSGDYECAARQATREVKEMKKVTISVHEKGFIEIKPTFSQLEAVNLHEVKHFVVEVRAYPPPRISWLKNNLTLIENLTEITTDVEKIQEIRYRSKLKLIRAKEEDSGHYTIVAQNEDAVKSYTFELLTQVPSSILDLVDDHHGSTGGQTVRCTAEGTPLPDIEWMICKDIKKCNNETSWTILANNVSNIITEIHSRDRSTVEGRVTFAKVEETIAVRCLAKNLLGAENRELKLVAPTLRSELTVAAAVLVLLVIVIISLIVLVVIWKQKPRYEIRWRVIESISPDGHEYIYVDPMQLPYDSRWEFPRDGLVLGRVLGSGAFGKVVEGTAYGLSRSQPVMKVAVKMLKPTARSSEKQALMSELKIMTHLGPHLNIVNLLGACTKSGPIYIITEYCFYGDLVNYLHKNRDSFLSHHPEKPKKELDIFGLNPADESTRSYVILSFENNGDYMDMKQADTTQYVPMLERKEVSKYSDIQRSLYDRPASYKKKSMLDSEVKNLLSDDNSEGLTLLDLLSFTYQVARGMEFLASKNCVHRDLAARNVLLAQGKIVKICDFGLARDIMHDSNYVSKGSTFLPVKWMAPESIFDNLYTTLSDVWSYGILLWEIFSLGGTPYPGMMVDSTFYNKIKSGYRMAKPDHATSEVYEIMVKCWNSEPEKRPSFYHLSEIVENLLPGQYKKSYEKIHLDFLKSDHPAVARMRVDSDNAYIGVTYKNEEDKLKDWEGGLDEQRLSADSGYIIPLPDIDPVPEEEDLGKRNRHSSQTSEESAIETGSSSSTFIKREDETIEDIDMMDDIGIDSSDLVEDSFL

Structure (SMILES) | IC50 [1] | IC50 [4] | GI50 (EOL1 [2]) | GI50 (K562 [3]) | Ratio (K562 [5]) | GI50 (BT-474) | GI50 (MCF7) | Ratio (HCC827 [6]) | Ratio (EOL1 [7]) | GI50 (HCC827 [8])
CCn1cnc2c(Nc3cccc(Cl)c3)nc(N[C@@H]3CCCC[C@@H]3N)nc21 | > 20 µM | 0.017 µM | 0.99 µM | 4.8 µM | 0.48 | 5.4 µM | 3.3 µM | 0.29 | 1.28 | 12.2 µM
CC(C)CCn1cnc2c(Nc3cccc(O)c3)nc(N[C@H]3CC[C@H](N)CC3)nc21 | 0.066 µM | 0.513 µM | 0.06 µM | 7.6 µM | 1.22 | 14.7 µM | 12.6 µM | 5.6 | 8.94 | 21.3 µM
CCCCCCn1cnc2c(Nc3ccc(O)cc3)nc(N[C@H]3CC[C@H](N)CC3)nc21 | 0.452 µM | 0.485 µM | 0.19 µM | 5.4 µM | 0.69 | 7.7 µM | 3.5 µM | 0.44 | 2.5 | 24.7 µM
CC(C)=CCn1cnc2c(Nc3cccc(Cl)c3)nc(N[C@H]3CC[C@H](N)CC3)nc21 | 0.187 µM | 0.227 µM | 0.08 µM | 3.5 µM | 0.75 | 7 µM | 4.2 µM | 2.69 | 3.1 | 13.5 µM
CCCCn1cnc2c(Nc3cccc(Cl)c3)nc(N[C@H]3CC[C@H](N)CC3)nc21 | 0.154 µM | 0.132 µM | 0.16 µM | 2 µM | 0.78 | 5.1 µM | 2 µM | 0.54 | 10.75 | 7.2 µM
COc1ccc(Nc2nc(N[C@H]3CC[C@H](N)CC3)nc3c2ncn3CCC(C)C)c(OC)c1 | 3.2 µM | 5.97 µM | 0.63 µM | 5.5 µM | 1 | 7.9 µM | 6.3 µM | 23.09 | 1.65 | 32.9 µM
CCCCn1cnc2c(Nc3ccc(Cl)cc3)nc(N[C@H]3CC[C@H](N)CC3)nc21 | 0.06 µM | 0.117 µM | 0.05 µM | 2.7 µM | 1.52 | 7.3 µM | 2.1 µM | 0.28 | 6.43 | 10.8 µM
CC(C)CCn1cnc2c(Nc3ccccc3)nc(N[C@H]3CC[C@H](N)CC3)nc21 | 0.096 µM | 0.627 µM | 0.01 µM | 3.5 µM | 1.2 | 6.4 µM | 5.4 µM | 0.39 | 1.67 | 21.7 µM
COc1cc(Nc2nc(N[C@H]3CC[C@H](N)CC3)nc3c2ncn3CCC(C)C)cc(OC)c1 | 0.29 µM | 0.98 µM | 0.14 µM | 2.5 µM | 1.6 | 5.9 µM | 4.5 µM | 1.47 | 3.71 | 11.2 µM
CCCCCCn1cnc2c(Nc3ccc(Cl)cc3)nc(N[C@H]3CC[C@H](N)CC3)nc21 | 0.156 µM | 0.433 µM | 0.44 µM | 2.1 µM | 0.88 | 5.5 µM | 4.2 µM | 5.2 | 4.61 | 11.7 µM
CC(C)CCn1cnc2c(Nc3ccc(O)cc3)nc(N[C@H]3CC[C@H](N)CC3)nc21 | 0.15 µM | 0.49 µM | 0.03 µM | 4.6 µM | 0.73 | 7.7 µM | 3.1 µM | 2.71 | 1.17 | 14.4 µM
N[C@H]1CC[C@H](Nc2nc(Nc3ccc(Cl)cc3)c3ncn(C4CCCCC4)c3n2)CC1 | 1.09 µM | 0.965 µM | 0.14 µM | 1.7 µM | 0.79 | 4.1 µM | 2.3 µM | 2.68 | 2.64 | 9.1 µM
CC(C)CCn1cnc2c(Nc3ccc(Cl)cc3)nc(N[C@H]3CC[C@H](N)CC3)nc21 | 0.059 µM | 0.319 µM | 0.09 µM | 1.8 µM | 0.81 | 5.1 µM | 2.7 µM | 3.5 | 7.8 | 10.2 µM
CCCCCCn1cnc2c(Nc3cccc(Cl)c3)nc(N[C@H]3CC[C@H](N)CC3)nc21 | 0.195 µM | 0.5 µM | 0.31 µM | 2.3 µM | 0.79 | 5.1 µM | 2.7 µM | 7.37 | 1.86 | 10.2 µM
N[C@H]1CC[C@H](Nc2nc(Nc3cccc(Cl)c3)c3ncn(Cc4ccccc4)c3n2)CC1 | 5.1 µM | 2.83 µM | 0.38 µM | 3 µM | 1.76 | 10.2 µM | 3.6 µM | 10.37 | 0.99 | 13.7 µM
CS(=O)(=O)CCNCc1ccc(-c2ccc3ncnc(Nc4ccc(OCc5cccc(F)c5)c(Cl)c4)c3c2)o1 [LAPATINIB] |  |  | 0.41 µM | 5.7 µM |  | 0.2 µM | 8.1 µM |  |  | 22.3 µM

Second part, led by results:

IC50 [1] | IC50 [4] | Structure (SMILES) | GI50 (EOL1 [2]) | GI50 (K562 [3]) | Ratio (K562 [5]) | GI50 (BT-474) | GI50 (MCF7) | Ratio (HCC827 [6]) | Ratio (EOL1 [7]) | GI50 (HCC827 [8])
0.16 µM | 0.134 µM | CCCCn1cnc2c(Nc3ccccc3)nc(N[C@H]3CC[C@H](N)CC3)nc21 | 0.02 µM | 3.2 µM | 2.29 | 4.9 µM | 2.2 µM | 0.33 | 4.93 | 9 µM
4.74 µM | 7.17 µM | CC(C)=CCC/C(C)=C/Cn1cnc2c(Nc3cccc(Cl)c3)nc(N[C@H]3CC[C@H](N)CC3)nc21 | 0.59 µM | 2.2 µM | 1.78 | 4.3 µM | 3.6 µM | 1.94 | 1.13 | 18.2 µM
> 20 µM | 0.306 µM | CC(C)CCn1cnc2c(NCc3cccc(Cl)c3)nc(N[C@H]3CC[C@H](N)CC3)nc21 | 1.33 µM | 3.1 µM | 1.85 | 6.6 µM | 4.7 µM | 2.5 | 1.77 | 16.7 µM
1.41 µM | 0.68 µM | CCCCCCn1cnc2c(Nc3cc(OC)cc(OC)c3)nc(N[C@H]3CC[C@H](N)CC3)nc21 | 0.38 µM | 1.9 µM | 1.4 | 3.7 µM | 3.5 µM | 9.67 | 3.78 | 9.1 µM
1.23 µM | 1.44 µM | N[C@H]1CC[C@H](Nc2nc(Nc3ccc(O)cc3)c3ncn(C4CCCCC4)c3n2)CC1 | 0.22 µM | 8.9 µM | 0.95 | 27.3 µM | 9.6 µM | 9.61 | 2.44 | 32.5 µM
7.66 µM | 5.5 µM | COc1ccc(Cn2cnc3c(Nc4cccc(Cl)c4)nc(N[C@H]4CC[C@H](N)CC4)nc32)cc1 | 0.53 µM | 2.8 µM | 1.43 | 8.2 µM | 4.8 µM | 1.94 | 0.96 | 18.7 µM
1.5 µM | 0.442 µM | CCCCn1cnc2c(Nc3cc(OC)cc(OC)c3)nc(N[C@H]3CC[C@H](N)CC3)nc21 | 0.37 µM | 2.4 µM | 0.82 | 15.6 µM | 4.5 µM | 1.35 | 1.3 | 20.1 µM
> 20 µM | 0.207 µM | CCCCn1cnc2c(NCc3cccc(Cl)c3)nc(N[C@H]3CC[C@H](N)CC3)nc21 | 0.35 µM | 4.3 µM | 1.27 | 4.7 µM | 2.2 µM | 0.26 | 0.99 | 10.6 µM
